These results are taken from US20210405025A1, “IDENTIFYING COMPOUNDS FOR TREATING CANCER AND USE THEREOF” (THE UAB RESEARCH FOUNDATION, priority 2018, published 2021).

Where a name gives a salt, the structure may show the parent alone.

The first test relates to relapsed AML cells. Description: Drug sensitivity assay, 1,536-well, 3-day culture with individual approved drugs at 10 μM, viability by alamarBlue. Format: cell-based, human.
Details: not given
In short, it runs like this: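 Three-day exposure of primary AML cells to individual drugs in 1,536-well format, viability read as percent live cells. Cells were thawed, cultured overnight, sorted by FACS for viable blasts and plated at 4,000-4,500 cells/5 μL in cytokine-supplemented IMDM/BIT medium.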
On to ZINC PYRITHIONE, for which the “#Cases >70% cell death” value was determined as 9.

The test is the same for the next values; noted with them: number of relapsed AML cases out of 18 tested with >70% cell death; 10 μM, 3-day culture.
As to `CCN(CC)CCOc1ccc2c(c1)C(=O)c1cc(OCCN(CC)CC)ccc1-2` [TILORONE], the “#Cases >70% cell death” value worked out at 10.
On the same count and under the same terms, next, `Clc1ccc(C(Cn2ccnc2)OCc2ccsc2Cl)c(Cl)c1` (stereo not drawn) [TIOCONAZOLE]: 1.
On to `Nc1nc2nc[nH]c2c(=S)[nH]1` [TIOGUANINE (6-thioguanine), TIOGUANINE], for which the “#Cases >70% cell death” value came to 16.
For `Cn1cncc1[C@@](N)(c1ccc(Cl)cc1)c1ccc2c(c1)c(-c1cccc(Cl)c1)cc(=O)n2C` [TIPIFARNIB], the “#Cases >70% cell death” value is on record as 7.
With `NC[C@H]1O[C@H](O[C@H]2[C@H](O)[C@@H](O[C@H]3O[C@H](CO)[C@@H](O)[C@H](N)[C@H]3O)[C@H](N)C[C@@H]2N)[C@H](N)C[C@@H]1O` [TOBRAMYCIN], the “#Cases >70% cell death” value is reported as 1.
In the case of `C[C@@H]1CCN(C(=O)CC#N)C[C@@H]1N(C)c1ncnc2[nH]ccc12` [TOFACETINIB], the “#Cases >70% cell death” value was found to be 4.
Same read-out and setting: next, `c1ccc(CC2=NCCN2)cc1` [TOLAZOLINE HYDROCHLORIDE]: 4.
On the same count and under the same terms, to `Cc1ccc(C(=O)c2cc(O)c(O)c([N+](=O)[O-])c2)cc1` [TOLCAPONE] belongs 1.
As to `Cc1cc2nc3ccc(N(C)C)cc3[s+]c2cc1N` [TOLONIUM CHLORIDE], the “#Cases >70% cell death” value came out at 11.
On the same count and under the same terms, to `CC[C@@]1(O)C(=O)OCc2c1cc1n(c2=O)Cc2cc3c(CN(C)C)c(O)ccc3nc2-1` [TOPOTECAN] belongs 13; to `CN1CCN(CCCN2c3ccccc3Sc3ccc(C(F)(F)F)cc32)CC1` [TRIFLUOPERAZINE], 3; to `O=c1[nH]c(=O)n([C@H]2C[C@H](O)[C@@H](CO)O2)cc1C(F)(F)F` [TRIFLURIDINE], 6.
The same measure, in the same setting: next, `CCC(COC(=O)c1cc(OC)c(OC)c(OC)c1)(c1ccccc1)N(C)C` (stereo not drawn) [TRIMEBUTINE]: 1.
For the molecule `COc1cc(C(=O)NCc2ccc(OCCN(C)C)cc2)cc(OC)c1OC` [TRIMETHOBENZAMIDE HYDROCHLORIDE], the “#Cases >70% cell death” value is 1.
On the same count and under the same terms, next, `CC[C@H]1OC(=O)C[C@@H](O)[C@H](C)[C@@H](O[C@@H]2O[C@H](C)[C@@H](O[C@H]3C[C@@](C)(O)[C@@H](O)[C@H](C)O3)[C@H](N(C)C)[C@H]2O)[C@@H](CC=O)C[C@@H](C)C(=O)/C=C/C(C)=C/[C@@H]1CO[C@@H]1O[C@H](C)[C@@H](O)[C@@H](OC)[C@H]1OC` [TYLOSIN]: 1; `O=c1cc[nH]c(=O)[nH]1` [URACIL]: 7; `C[C@H](CCC(=O)O)[C@H]1CC[C@H]2[C@@H]3[C@@H](O)C[C@@H]4C[C@H](O)CC[C@]4(C)[C@H]3CC[C@]12C` [URSODIOL]: 2.
Consider `CC(C)[C@H](N)C(=O)OCCOCn1cnc2c(=O)[nH]c(N)nc21` [VALACICLOVIR], for which the “#Cases >70% cell death” value worked out at 1.
The same measure, in the same setting: to `COc1cc2c(Nc3ccc(Br)cc3F)ncnc2cc1OCC1CCN(C)CC1` [VANDETANIB] belongs 1; to `C=CC(N)CCC(=O)O` (stereo not drawn) [VIGABATRIN], 13; to `N#Cc1ccc2[nH]cc(CCCCN3CCN(c4ccc5oc(C(N)=O)cc5c4)CC3)c2c1` [VILAZODONE], 2.
The same measure, in the same setting: next, `N#C[C@@H]1CCCN1C(=O)CNC12CC3CC(CC(O)(C3)C1)C2` [VILDAGLIPTIN]: 1; `CC[C@]1(O)C[C@@H]2CN(CCc3c([nH]c4ccccc34)[C@@](C(=O)OC)(c3cc4c(cc3OC)N(C)[C@H]3[C@@](O)(C(=O)OC)[C@H](OC(C)=O)[C@]5(CC)C=CCN6CC[C@]43[C@@H]65)C2)C1` [VINBLASTINE]: 14; `CC[C@]1(O)C[C@H]2CN(CCc3c([nH]c4ccccc34)[C@@](C(=O)OC)(c3cc4c(cc3OC)N(C=O)[C@H]3[C@@](O)(C(=O)OC)[C@H](OC(C)=O)[C@]5(CC)C=CCN6CC[C@]43[C@@H]65)C2)C1` [VINCRISTINE]: 14.
The same measure, in the same setting: next, `CCC1=C[C@@H]2CN(C1)Cc1c([nH]c3ccccc13)[C@@](C(=O)OC)(c1cc3c(cc1OC)N(C)[C@H]1[C@@](O)(C(=O)OC)[C@H](OC(C)=O)[C@]4(CC)C=CCN5CC[C@]31[C@@H]54)C2` [VINORELBINE]: 16; `CCOC(=O)C1=C[C@]2(CC)CCCN3CCc4c(n1c1ccccc41)[C@@H]32` [VINPOCETINE]: 1.
On to `O=C(CCCCCCC(=O)Nc1ccccc1)NO` [VORINOSTAT], for which the “#Cases >70% cell death” value was determined as 18.
The same measure, in the same setting: next, `O=C(O)[C@]1(Cc2cccc(Nc3nccs3)n2)CC[C@@H](Oc2cccc(Cl)c2F)CC1` [VX-689 (MK5108)]: 1; `O=C(Nc1ccc(-c2ccnc(Nc3ccc(N4CCOCC4)cc3)n2)cc1)C1CCCN1` (stereo not drawn) [XL019]: 3.
On the same count and under the same terms, to `Cc1cccc(C)c1N=C1NCCCS1` [XYLAZINE] belongs 4.
On the same count and under the same terms, to `CCOC(=O)c1c(N)sc2c1CCN(Cc1ccccc1)C2` [Y-3642] belongs 1.
Take `COCCn1c2c([n+](Cc3cnccn3)c1C)C(=O)c1ccccc1C2=O` [YM-155]: the “#Cases >70% cell death” value is listed as 18.
As for `O=C1Cc2cc(CCN3CCN(c4nsc5ccccc45)CC3)c(Cl)cc2N1` [ZIPRASIDONE], the “#Cases >70% cell death” value was determined as 3.
The same measure, in the same setting: next, ABAMECTIN: 18; AMONAFIDE MALATE: 8.
On to APILIMOD MESYLATE, for which the “#Cases >70% cell death” value is 4.
On the same count and under the same terms, to ARSENIC TRIOXIDE DIETHANOLAMINE SALT belongs 16.
Still for that read-out and setting: to AZD-1152 belongs 5; to BENZALKONIUM CHLORIDE, 15.
The same measure, in the same setting: to BLEOMYCIN belongs 2; to EPRINOMECTIN, 5.
As to EXATECAN MESYLATE, the “#Cases >70% cell death” value is 12.
The same measure, in the same setting: next, “GRAMICIDIN [GRAMICIDIN (GRAMICIDIN A SHOWN)]”: 9.
Still for that read-out and setting: next, IFENPRODIL TARTRATE: 4.
For IVERMECTIN, the “#Cases >70% cell death” value amounted to 18.
On the same count and under the same terms, to “MONENSIN SODIUM [MONENSIN SODIUM (MONENSIN A IS SHOWN)]” belongs 7.
NALTRIBEN METHAN[…]: the “#Cases >70% cell death” value was determined as 1.
On the same count and under the same terms, next, NONOXYNOL-9: 2; TYLOXAPOL: 8; VINFLUNINE TARTRATE: 14.
